Assays:
[1] = system: p-Akt (S473); experiment: Western blot, p-Akt (S473) in IGF stimulated A549 cells; assay type: cell-based; settings: compound 1 h, IGF 10 min, FIG. 1, in words
Method: A549 cells were seeded at a density of 2×10^5 cells/well into 12-well plates, and adhered overnight. Then the medium was discarded and the plates were washed three times with normal saline. After that, fresh serum-free medium was added to starve cells for 24 hours, compounds to be tested were added to work for 1 h, then IGF-I was added to stimulated for 10 min, followed byadding a lysis buffer on ice to lyse for half an hour. The cell lysates were collected and centrifuged at 20000×g at 4° C. for 10min, then the supernatant was collected. Protein was quantified by MicroBCA protein quantification Assay kit, and the protein concentration was normalized. The supernatant was mixed with the 4×SDS sample buffer [200 mM Tris.Cl (pH 6.8), 400 mM DTT, 8% SDS, 0.4% bromophenol blue, 40% glycerol] and boiled for 15 min. After cooling at room temperature, aliquots were loaded on polyacrylamide gel, and electrophoresed in Tris-glycine electrophoretic buffer (25 mM Tris, 250 mM glycine, 0.1% SDS) at 80-120 V for about 2 h. Proteins were transferred from the gel to a nitrocellulose membrane by a semi-dry method. Transferring conditions: transfer buffer (39 mM glycine, 48 mM Tris base, 0.037% SDS, 20% methanol); transfer current 25 mA; transfer time 2 h. After transfer, Ponceau S staining was used to determine the transfer efficiency and the positions of protein bands on the nitrocellulose membranes. After labeling the membrane was blocked with a blocking solution containing 5% nonfat-dried milk [5% nonfat-dried milk, 20 mM Tris-HCl (pH 7.2-7.4), 150 mM NaCl, 0.1% (v/v) Tween 20] on a shaker at room temperature for 2 h. To the system were added specific primary antibodies and incubated overnight at 4° C. Then the membrane was washed with PBST solution [20 mM Tris-HCl (pH 7.2-7.4), 150 mM NaCl, 0.1% (v/v) Tween 20] at room temperature three times, 15 min/time. To the system were added Horseradish peroxidase-labeled secondary antibodies and incubated at room temperature on a shaker with gentle shaking for 2 h. After washing with PBST solution three times, the system was exposed, developed and fixed after SuperSignal West Dura Chemiluminescent Substrate (Pierce Inc, Rochford, IL) was used for color. The results were shown in FIG. 1, in which there were 12 lanes the band shade and size of which indicated the corresponding protein concentration levels. […] MK2206 was an Akt phosphorylation inhibitor developed by Merck, and was currently in phase II clinical trial, showing good therapeutic effects in a variety of tumors.

[2] = system: more than 20 tumor cell lines; experiment: Proliferation of more than 20 tumor cell lines (FIG. 2); assay type: cell-based; settings: FIG. 2, in words
Method: (§1) At a certain density cells were seeded in 96-well plates, and adhered overnight. The medium was discarded after incubating cells with compounds to be tested for 72 h, then 100μL/well trichloroacetic acid (TCA) was added to fix cells at 4° C. for 2h. After that the fixing solution was discarded. Cells were gently washed 5 times with distilled water, dried at room temperature. Cells were stained with 4 mg/mL SRB staining solution (100 μL/well) at room temperature for 15min. The staining solution was discarded, and cells were washed five times with 1% acetic acid (HAC) and dried at room temperature. To the plate tris base buffer (10 mM) was added at 150 μL/well and placed at room temperature for 15min. The OD values were measured at 540 nm wavelength in a microplate reader. Inhibitory rate (%)=(OD valuecontrol wells−OD valuedrugs treated wells)/OD valuecontrol wells×100%.
(§2) In the present invention the inhibition of a representative compound FD162 to the proliferation of more than 20 tumor cell lines were tested, and the experimental methods were the same as that described in Example 2.

[3] = system: SGK(h); experiment: Tumor-associated kinase inhibition test; assay type: biochemical, human; settings: 10 μM
Description: Eurofins Pharma Discovery Services UK Limited completed and reported this experiment.

[4] = system: PI3K/Akt/mTOR signaling pathway; experiment: Inhibition test to signaling pathway at the cellular level (FIG. 4); assay type: cell-based; settings: different concentrations, FIG. 4, in words
Method: A549 cells were seeded at a density of 2×10^5 cells/well into 12-well plates, and adhered overnight. Then the medium was discarded and the plates were washed three times with normal saline. After that, fresh serum-free medium was added to starve cells for 24 hours, compounds to be tested were added to work for 1 h, then IGF-I was added to stimulated for 10 min, followed byadding a lysis buffer on ice to lyse for half an hour. The cell lysates were collected and centrifuged at 20000×g at 4° C. for 10min, then the supernatant was collected. Protein was quantified by MicroBCA protein quantification Assay kit, and the protein concentration was normalized. The supernatant was mixed with the 4×SDS sample buffer [200 mM Tris.Cl (pH 6.8), 400 mM DTT, 8% SDS, 0.4% bromophenol blue, 40% glycerol] and boiled for 15 min. After cooling at room temperature, aliquots were loaded on polyacrylamide gel, and electrophoresed in Tris-glycine electrophoretic buffer (25 mM Tris, 250 mM glycine, 0.1% SDS) at 80-120 V for about 2 h. Proteins were transferred from the gel to a nitrocellulose membrane by a semi-dry method. Transferring conditions: transfer buffer (39 mM glycine, 48 mM Tris base, 0.037% SDS, 20% methanol); transfer current 25 mA; transfer time 2 h. After transfer, Ponceau S staining was used to determine the transfer efficiency and the positions of protein bands on the nitrocellulose membranes. […]

[5] = system: Hela cell; experiment: Sulforhodamine B proliferation; assay type: cell-based; settings: Homo sapiens, SRB method of Example 2, FIG. 3, read-out: Half inhibitory concentration to Hela cell proliferation
Method: as §1, §2

[6] = system: Hela cells; experiment: Subcutaneous transplantation of Hela cells into nude mice; assay type: in vivo
Method: The method used herein for animal experiment was that using the subcutaneous transplantation of Hela cells into nude mice.
Tumor tissues at vigorous growth phase were cut into the size of about 1.5mm^3, and inoculated subcutaneously to the right armpit of nude mice under sterile condition. The diameters of subcutaneous xenograft tumors in nude mice were measured with a vernier caliper. The animals were randomly divided when the tumors grew to the sizes of 100-200 mm^3. FD162 was divided into three groups: 20mg/kg, 10mg/kg and 5mg/kg, with 9 mice per group; rapamycin was 10mg/kg; the model group was given saline. All treatments were intraperitoneally administered once a day for 12 days. Throughout the experiment, tumor diameters and body weights were measured simultaneously twice a week. Tumor volume (TV) was calculated as follows: TV=½×a×b2, where a, b respectively represents the length and width of tumors. […]

Inhibitory rate (%) [3]: −4% | IC50 [5]: 3.67 µM
SMILES: C=C(C)n1c(=O)n(C(C)=O)c2ncc(Br)cc21 [FD162]
Effect on Akt phosphorylation level (p-Akt S473 band) [1]: significantly reduce the Akt phosphorylation level | Effect on Akt phosphorylation level (p-Akt S473 band) ([1]; listed as FD3): comparable effects to MK2206 | Inhibition of proliferation of tumor cell lines [2]: widespread inhibitory effects | Down-regulation of PI3K/Akt/mTOR signaling pathway [4]: down-regulate PI3K/Akt/mTOR signaling pathway in a dose-dependent manner | Tumor inhibitory rate ([6]; 10 mg/kg intraperitoneally once a day for 12 days, Hela xenograft in nude mice): greater than 50% | Tumor inhibiting effect compared with positive control group (rapamycin 10mg/kg) ([6]; middle dose (10 mg/kg), i.p., 12 days, FIG. 5, in words): better than the positive control group
